Test results: patent publication US20240382629A1, “HETEROBIVALENT AND HOMOBIVALENT AGENTS TARGETING FIBROBLAST ACTIVATION PROTEIN ALPHA AND/OR PROSTATE-SPECIFIC MEMBRANE ANTIGEN” (The Johns Hopkins University, priority 2021, published 2024)
Where “and” joins values, the source holds several entries; their conditions need not be identical. Equal values may be shown once.

Assays:
[1] = Biodistribution of representative compounds ([^18F]Sri-07-56, [^18F]Sri-07-52, [^18F]JHU1221823, [^18F]FAPI-74), tissue % ID/g with carrier or blocker; format: in vivo, mouse; details: 60 min, 20 μCi per mouse
Source text: Biodistribution of Representative Compounds

[2] = Biodistribution of [^18F]JHU122047 with UAMC-01110 blocker; format: in vivo, mouse; details: 60 min; for % ID/g Bladder / % ID/g Blood / % ID/g Brain / % ID/g Fat / % ID/g Femur / % ID/g Heart / % ID/g Kidney / % ID/g Large intestine / % ID/g Liver / % ID/g Lung / % ID/g Muscle / % ID/g Pancreas / % ID/g Salivery gland / % ID/g Small intestine / % ID/g Spleen / % ID/g Stomach / % ID/g Tumor: individual mouse
[3] = NOD/SCID Model, + Blocker (UAMC-01110)
[4] = Nude Model, + Blocker (UAMC-01110)

## N#CC1CCCN1C(=O)CNC(=O)c1ccnc2ccc(OCCCNC(=O)CCc3cn(CCC(NC(=O)c4ccc([18F])nc4)C(=O)NCCCCC(NC(=O)NC(CC(=O)O)C(=O)O)C(=O)O)nn3)cc12 (centres unmarked) [[18F]Sri-07-52]
[1]
  Bladder % ID/g Mean: 1.75 % ID/g
  Blood % ID/g Mean: 2.39 % ID/g
  Brain % ID/g Mean: 0.09 % ID/g
  Fat % ID/g Mean: 0.41 % ID/g
  Femur % ID/g Mean: 2.10 % ID/g
  Heart % ID/g Mean: 1.39 % ID/g
  Kidney % ID/g Mean: 1.21 % ID/g
  Large intestine % ID/g Mean: 1.16 % ID/g
  Liver % ID/g Mean: 1.07 % ID/g
  Lung % ID/g Mean: 1.46 % ID/g
  Muscle % ID/g Mean: 1.40 % ID/g
  Pancreas % ID/g Mean: 3.30 % ID/g
  Salivary gland % ID/g Mean: 5.13 % ID/g
  Small intestine % ID/g Mean: 1.57 % ID/g
  Spleen % ID/g Mean: 0.74 % ID/g
  Stomach % ID/g Mean: 0.68 % ID/g
  Tumor % ID/g Mean: 2.27 % ID/g
[1]; individual mice
  Bladder % ID/g: 1.90 % ID/g and 1.61 % ID/g
  Blood % ID/g: 2.58 % ID/g and 2.21 % ID/g
  Brain % ID/g: 0.08 % ID/g and 0.11 % ID/g
  Fat % ID/g: 0.53 % ID/g and 0.29 % ID/g
  Femur % ID/g: 1.91 % ID/g and 2.29 % ID/g
  Heart % ID/g: 1.36 % ID/g and 1.42 % ID/g
  Kidney % ID/g: 1.18 % ID/g and 1.23 % ID/g
  Large intestine % ID/g: 1.11 % ID/g and 1.21 % ID/g
  Liver % ID/g: 1.11 % ID/g and 1.04 % ID/g
  Lung % ID/g: 1.60 % ID/g and 1.32 % ID/g
  Muscle % ID/g: 1.43 % ID/g and 1.38 % ID/g
  Pancreas % ID/g: 3.34 % ID/g and 3.27 % ID/g
  Salivery gland % ID/g: 4.35 % ID/g and 5.90 % ID/g
  Small intestine % ID/g: 1.56 % ID/g and 1.57 % ID/g
  Spleen % ID/g: 0.72 % ID/g and 0.77 % ID/g
  Stomach % ID/g: 0.66 % ID/g and 0.69 % ID/g
  Tumor % ID/g: 2.44 % ID/g and 2.10 % ID/g

## N#C[C@@H]1CCCN1C(=O)CNC(=O)c1ccnc2ccc(OCCCNC(=O)[C@H](CCNC(=O)c3ccc([18F])nc3)NC(=O)CN3CCN(CC(=O)[O-])CCN(CC(=O)[O-])CCN(CC(=O)[O-])CC3)cc12.[In+3] [[^18F]Sri-08-51]
[2]; [3]
  % ID/g Bladder: 13.35 % ID/g and 61.94 % ID/g
  % ID/g Blood: 0.22 % ID/g and 0.40 % ID/g
  % ID/g Brain: 0.02 % ID/g and 1.02 % ID/g
  % ID/g Fat: 0.06 % ID/g
  % ID/g Femur: 0.88 % ID/g and 0.38 % ID/g
  % ID/g Heart: 0.11 % ID/g and 0.25 % ID/g
  % ID/g Kidney: 1.42 % ID/g and 1.40 % ID/g
  % ID/g Large intestine: 0.19 % ID/g and 0.35 % ID/g
  % ID/g Liver: 4.02 % ID/g and 8.14 % ID/g
  % ID/g Lung: 0.32 % ID/g and 0.61 % ID/g
  % ID/g Muscle: 0.07 % ID/g and 0.49 % ID/g
  % ID/g Pancreas: 0.08 % ID/g and 0.17 % ID/g
  % ID/g Salivery gland: 0.45 % ID/g and 0.26 % ID/g
  % ID/g Small intestine: 0.94 % ID/g and 2.12 % ID/g
  % ID/g Spleen: 0.14 % ID/g and 0.32 % ID/g
  % ID/g Stomach: 0.25 % ID/g and 0.45 % ID/g
  % ID/g Tumor: 1.34 % ID/g and 0.91 % ID/g
  % ID/g Bladder Mean: 37.64 % ID/g
  % ID/g Blood Mean: 0.31 % ID/g
  % ID/g Brain Mean: 0.52 % ID/g
  % ID/g Fat Mean: 0.06 % ID/g
  % ID/g Femur Mean: 0.88 % ID/g
  % ID/g Heart Mean: 0.18 % ID/g
  % ID/g Kidney Mean: 1.41 % ID/g
  % ID/g Large intestine Mean: 0.27 % ID/g
  % ID/g Liver Mean: 6.08 % ID/g
  % ID/g Lung Mean: 0.47 % ID/g
  % ID/g Muscle Mean: 0.28 % ID/g
  % ID/g Pancreas Mean: 0.13 % ID/g
  % ID/g Salivary gland Mean: 0.35 % ID/g
  % ID/g Small intestine Mean: 1.53 % ID/g
  % ID/g Spleen Mean: 0.23 % ID/g
  % ID/g Stomach Mean: 0.35 % ID/g
  % ID/g Tumor Mean: 1.13 % ID/g
[2]; NOD/SCID Model, no blocker
  % ID/g Bladder: 44.77 % ID/g and 23.08 % ID/g
  % ID/g Blood: 4.18 % ID/g and 5.83 % ID/g
  % ID/g Brain: 0.26 % ID/g and 0.25 % ID/g
  % ID/g Fat: 2.81 % ID/g and 0.45 % ID/g
  % ID/g Femur: 4.83 % ID/g and 5.16 % ID/g
  % ID/g Heart: 1.74 % ID/g and 2.39 % ID/g
  % ID/g Kidney: 2.10 % ID/g and 2.19 % ID/g
  % ID/g Large intestine: 1.91 % ID/g and 1.87 % ID/g
  % ID/g Liver: 3.23 % ID/g and 4.21 % ID/g
  % ID/g Lung: 2.77 % ID/g and 2.76 % ID/g
  % ID/g Muscle: 2.84 % ID/g and 2.83 % ID/g
  % ID/g Pancreas: 3.99 % ID/g and 4.82 % ID/g
  % ID/g Salivery gland: 12.48 % ID/g and 14.32 % ID/g
  % ID/g Small intestine: 2.09 % ID/g
  % ID/g Spleen: 1.27 % ID/g and 1.71 % ID/g
  % ID/g Stomach: 1.65 % ID/g and 1.75 % ID/g
  % ID/g Tumor: 16.64 % ID/g and 15.98 % ID/g
  % ID/g Bladder Mean: 33.92 % ID/g
  % ID/g Blood Mean: 5.01 % ID/g
  % ID/g Brain Mean: 0.25 % ID/g
  % ID/g Fat Mean: 1.63 % ID/g
  % ID/g Femur Mean: 5.00 % ID/g
  % ID/g Heart Mean: 2.07 % ID/g
  % ID/g Kidney Mean: 2.15 % ID/g
  % ID/g Large intestine Mean: 1.89 % ID/g
  % ID/g Liver Mean: 3.72 % ID/g
  % ID/g Lung Mean: 2.77 % ID/g
  % ID/g Muscle Mean: 2.84 % ID/g
  % ID/g Pancreas Mean: 4.40 % ID/g
  % ID/g Salivary gland Mean: 13.40 % ID/g
  % ID/g Small intestine Mean: 2.09 % ID/g
  % ID/g Spleen Mean: 1.49 % ID/g
  % ID/g Stomach Mean: 1.70 % ID/g
  % ID/g Tumor Mean: 16.31 % ID/g
[2]; [4]
  % ID/g Bladder: 0.22 % ID/g and 0.74 % ID/g
  % ID/g Blood: 0.10 % ID/g
  % ID/g Brain: 0.01 % ID/g
  % ID/g Fat: 0.03 % ID/g and 0.01 % ID/g
  % ID/g Femur: 0.12 % ID/g
  % ID/g Heart: 0.05 % ID/g
  % ID/g Kidney: 1.19 % ID/g and 1.05 % ID/g
  % ID/g Large intestine: 0.08 % ID/g and 0.11 % ID/g
  % ID/g Liver: 1.88 % ID/g and 2.01 % ID/g
  % ID/g Lung: 0.21 % ID/g and 0.22 % ID/g
  % ID/g Muscle: 0.07 % ID/g and 0.04 % ID/g
  % ID/g Pancreas: 0.05 % ID/g
  % ID/g Salivery gland: 0.07 % ID/g and 0.08 % ID/g
  % ID/g Small intestine: 3.50 % ID/g and 2.97 % ID/g
  % ID/g Spleen: 0.08 % ID/g
  % ID/g Stomach: 0.08 % ID/g and 0.15 % ID/g
  % ID/g Tumor: 0.17 % ID/g and 0.18 % ID/g
  % ID/g Bladder Mean: 0.48 % ID/g
  % ID/g Blood Mean: 0.10 % ID/g
  % ID/g Brain Mean: 0.01 % ID/g
  % ID/g Fat Mean: 0.02 % ID/g
  % ID/g Femur Mean: 0.12 % ID/g
  % ID/g Heart Mean: 0.05 % ID/g
  % ID/g Kidney Mean: 1.12 % ID/g
  % ID/g Large intestine Mean: 0.09 % ID/g
  % ID/g Liver Mean: 1.95 % ID/g
  % ID/g Lung Mean: 0.21 % ID/g
  % ID/g Muscle Mean: 0.05 % ID/g
  % ID/g Pancreas Mean: 0.05 % ID/g
  % ID/g Salivary gland Mean: 0.08 % ID/g
  % ID/g Small intestine Mean: 3.24 % ID/g
  % ID/g Spleen Mean: 0.08 % ID/g
  % ID/g Stomach Mean: 0.11 % ID/g
  % ID/g Tumor Mean: 0.18 % ID/g
[2]; Nude Model, no blocker
  % ID/g Bladder: 1.18 % ID/g and 2.99 % ID/g
  % ID/g Blood: 3.06 % ID/g and 3.20 % ID/g
  % ID/g Brain: 0.09 % ID/g and 0.08 % ID/g
  % ID/g Fat: 0.52 % ID/g and 0.77 % ID/g
  % ID/g Femur: 4.44 % ID/g and 3.86 % ID/g
  % ID/g Heart: 1.35 % ID/g and 1.52 % ID/g
  % ID/g Kidney: 1.69 % ID/g and 1.72 % ID/g
  % ID/g Large intestine: 1.20 % ID/g and 1.30 % ID/g
  % ID/g Liver: 1.81 % ID/g and 1.93 % ID/g
  % ID/g Lung: 2.03 % ID/g and 2.25 % ID/g
  % ID/g Muscle: 1.86 % ID/g and 1.93 % ID/g
  % ID/g Pancreas: 3.94 % ID/g and 3.77 % ID/g
  % ID/g Salivery gland: 7.74 % ID/g
  % ID/g Small intestine: 1.93 % ID/g and 1.63 % ID/g
  % ID/g Spleen: 0.90 % ID/g and 1.02 % ID/g
  % ID/g Stomach: 1.06 % ID/g and 1.16 % ID/g
  % ID/g Tumor: 10.87 % ID/g and 13.08 % ID/g
  % ID/g Bladder Mean: 2.09 % ID/g
  % ID/g Blood Mean: 3.13 % ID/g
  % ID/g Brain Mean: 0.09 % ID/g
  % ID/g Fat Mean: 0.64 % ID/g
  % ID/g Femur Mean: 4.15 % ID/g
  % ID/g Heart Mean: 1.43 % ID/g
  % ID/g Kidney Mean: 1.70 % ID/g
  % ID/g Large intestine Mean: 1.25 % ID/g
  % ID/g Liver Mean: 1.87 % ID/g
  % ID/g Lung Mean: 2.14 % ID/g
  % ID/g Muscle Mean: 1.90 % ID/g
  % ID/g Pancreas Mean: 3.85 % ID/g
  % ID/g Salivary gland Mean: 8.22 % ID/g
  % ID/g Small intestine Mean: 1.78 % ID/g
  % ID/g Spleen Mean: 0.96 % ID/g
  % ID/g Stomach Mean: 1.11 % ID/g
  % ID/g Tumor Mean: 11.97 % ID/g
